Experimental data: publication PMC5218480 (PLoS ONE, 2017)

System: MV-4-11 cells
Test: Gene expression microarray analysis (Affymetrix PrimeView) and GSEA
Type: cell-based, human
Set-up: RFU PODN (11730768_x_at) / Fold change /veh PODN (11730768_x_at) / RFU LINC00158 (11744669_a_at) / Fold change /veh LINC00158 (11744669_a_at) / RFU DUSP10 (11751237_a_at) / Fold change /veh DUSP10 (11751237_a_at) / RFU ID3 (11757404_x_at) / Fold change /veh ID3 (11757404_x_at) / RFU PLEKHG5 (11737974_s_at) / Fold change /veh PLEKHG5 (11737974_s_at) / RFU LRRC4B (11730491_at) / Fold change /veh LRRC4B (11730491_at) / RFU GIMAP4 (11747438_a_at) / Fold change /veh GIMAP4 (11747438_a_at) / RFU KRT8 (11758183_x_at) / Fold change /veh KRT8 (11758183_x_at) / RFU CNN1 (11734310_a_at) / Fold change /veh CNN1 (11734310_a_at) / RFU VPS37D (11726825_at) / Fold change /veh VPS37D (11726825_at) / RFU C10orf10 (11716522_x_at) / Fold change /veh C10orf10 (11716522_x_at) / RFU KIR2DL2 /// KIR2DL4 /// KIR2DL5A /// KIR2DL5B /// KIR2DS1 /// KIR2DS2 /// KIR2DS3 /// KIR2DS4 /// KIR3DL3 /// KIR3DL3 /// KIR3DS1 (11738374_at) / Fold change /veh KIR2DL2 /// KIR2DL4 /// KIR2DL5A /// KIR2DL5B /// KIR2DS1 /// KIR2DS2 /// KIR2DS3 /// KIR2DS4 /// KIR3DL3 /// KIR3DL3 /// KIR3DS1 (11738374_at) / RFU C1QL1 (11718748_at) / Fold change /veh C1QL1 (11718748_at) / RFU TMPRSS4 (11747572_a_at) / Fold change /veh TMPRSS4 (11747572_a_at) / RFU HAMP (11756126_x_at) / Fold change /veh HAMP (11756126_x_at) / RFU RNFT2 (11725882_a_at) / Fold change /veh RNFT2 (11725882_a_at) / RFU NR4A2 (11747474_a_at) / Fold change /veh NR4A2 (11747474_a_at) / RFU ABCC12 (11746883_a_at) / Fold change /veh ABCC12 (11746883_a_at) / RFU TMEM136 (11760407_x_at) / Fold change /veh TMEM136 (11760407_x_at) / RFU CLDN22 /// WWC2 (11732394_at) / Fold change /veh CLDN22 /// WWC2 (11732394_at) / RFU HLA-DPB1 (11760878_x_at) / Fold change /veh HLA-DPB1 (11760878_x_at) / RFU SPINT1 (11716480_a_at) / Fold change /veh SPINT1 (11716480_a_at) / RFU GAP43 (11754022_s_at) / Fold change /veh GAP43 (11754022_s_at) / RFU A4GNT (11735810_at) / Fold change /veh A4GNT (11735810_at) / RFU PRB3 (11715151_x_at) / Fold change /veh PRB3 (11715151_x_at) / RFU TUBB4B (11761932_at) / Fold change /veh TUBB4B (11761932_at) / RFU CAPN14 (11732068_a_at) / Fold change /veh CAPN14 (11732068_a_at) / RFU TMCC2 (11721928_a_at) / Fold change /veh TMCC2 (11721928_a_at) / RFU IRGQ (11745062_a_at) / Fold change /veh IRGQ (11745062_a_at) / RFU FAM174B (11720279_a_at) / Fold change /veh FAM174B (11720279_a_at) / RFU TMPRSS4 (11748680_a_at) / Fold change /veh TMPRSS4 (11748680_a_at) / RFU FAM212B (11763350_a_at) / Fold change /veh FAM212B (11763350_a_at) / RFU PLEKHG5 (11743358_a_at) / Fold change /veh PLEKHG5 (11743358_a_at) / RFU ZSCAN30 (11745921_a_at) / Fold change /veh ZSCAN30 (11745921_a_at) / RFU CMKLR1 (11741424_a_at) / Fold change /veh CMKLR1 (11741424_a_at) / RFU LOC101060620 /// MAPK8IP1 (11723275_at) / Fold change /veh LOC101060620 /// MAPK8IP1 (11723275_at) / RFU SPTSSB (11747773_x_at) / Fold change /veh SPTSSB (11747773_x_at) / RFU PRSS12 (11739890_at) / Fold change /veh PRSS12 (11739890_at) / RFU BIN1 (11741810_x_at) / Fold change /veh BIN1 (11741810_x_at) / RFU WNT11 (11732464_a_at) / Fold change /veh WNT11 (11732464_a_at) / RFU C10orf10 (11716521_a_at) / Fold change /veh C10orf10 (11716521_a_at) / RFU C5orf56 (11738089_at) / Fold change /veh C5orf56 (11738089_at) / RFU CYB561 (11721691_x_at) / Fold change /veh CYB561 (11721691_x_at) / RFU ANKRD19P (11752326_a_at) / Fold change /veh ANKRD19P (11752326_a_at) / RFU OR2T12 /// OR2T33 /// OR2T8 (11738714_s_at) / Fold change /veh OR2T12 /// OR2T33 /// OR2T8 (11738714_s_at) / RFU VCAN (11748164_a_at) / Fold change /veh VCAN (11748164_a_at) / RFU JSRP1 (11732532_at) / Fold change /veh JSRP1 (11732532_at) / RFU KRTAP10-11 (11738290_x_at) / Fold change /veh KRTAP10-11 (11738290_x_at) / RFU MYO3A (11730013_a_at) / Fold change /veh MYO3A (11730013_a_at) / RFU EBF3 (11725865_a_at) / Fold change /veh EBF3 (11725865_a_at) / RFU CAMK2N1 (11719241_x_at) / Fold change /veh CAMK2N1 (11719241_x_at) / RFU C5orf56 (11738088_a_at) / Fold change /veh C5orf56 (11738088_a_at) / RFU OLFML3 (11715873_a_at) / Fold change /veh OLFML3 (11715873_a_at) / RFU LOC100653217 /// NTM (11731650_a_at) / Fold change /veh LOC100653217 /// NTM (11731650_a_at) / RFU MAPK11 (11762145_a_at) / Fold change /veh MAPK11 (11762145_a_at) / RFU FIZ1 (11724087_x_at) / Fold change /veh FIZ1 (11724087_x_at) / RFU OASL (11726364_x_at) / Fold change /veh OASL (11726364_x_at) / RFU SOX15 (11748057_x_at) / Fold change /veh SOX15 (11748057_x_at) / RFU CD79A (11719716_a_at) / Fold change /veh CD79A (11719716_a_at) / RFU HIST1H1D (11736915_at) / Fold change /veh HIST1H1D (11736915_at) / RFU CASKIN2 (11723855_a_at) / Fold change /veh CASKIN2 (11723855_a_at) / RFU LOC730098 (11760151_x_at) / Fold change /veh LOC730098 (11760151_x_at) / RFU OR4N2 (11742367_at) / Fold change /veh OR4N2 (11742367_at) / RFU PRRT2 (11749266_a_at) / Fold change /veh PRRT2 (11749266_a_at) / RFU SNX32 (11753110_a_at) / Fold change /veh SNX32 (11753110_a_at) / RFU CDHR5 (11726645_a_at) / Fold change /veh CDHR5 (11726645_a_at) / RFU RCAN1 (11760418_a_at) / Fold change /veh RCAN1 (11760418_a_at) / RFU FAM167A (11723789_a_at) / Fold change /veh FAM167A (11723789_a_at) / RFU FAM26E (11764081_at) / Fold change /veh FAM26E (11764081_at) / RFU ISYNA1 (11749810_s_at) / Fold change /veh ISYNA1 (11749810_s_at) / RFU ACY1 (11761880_at) / Fold change /veh ACY1 (11761880_at) / RFU 11764098_at / Fold change /veh 11764098_at / RFU SAMD14 (11745864_x_at) / Fold change /veh SAMD14 (11745864_x_at) / RFU NPB (11741838_a_at) / Fold change /veh NPB (11741838_a_at) / RFU TMPRSS6 (11731388_a_at) / Fold change /veh TMPRSS6 (11731388_a_at) / RFU KRTAP10-2 (11738614_at) / Fold change /veh KRTAP10-2 (11738614_at) / RFU ARHGAP8 /// PRR5-ARHGAP8 (11727945_x_at) / Fold change /veh ARHGAP8 /// PRR5-ARHGAP8 (11727945_x_at) / RFU KRTAP5-7 /// NADSYN1 (11734609_at) / Fold change /veh KRTAP5-7 /// NADSYN1 (11734609_at) / RFU RASL12 (11751679_a_at) / Fold change /veh RASL12 (11751679_a_at) / RFU CDKN2B (11736163_a_at) / Fold change /veh CDKN2B (11736163_a_at) / RFU PRF1 (11729649_at) / Fold change /veh PRF1 (11729649_at) / RFU, ZNF638 /// ZNF638-IT1 / Fold change vs veh, ZNF638 /// ZNF638-IT1 / RFU, PANK3 / Fold change vs veh, PANK3 / RFU, SH3YL1 / Fold change vs veh, SH3YL1 / RFU, ZEB2 / Fold change vs veh, ZEB2 / RFU, NRIP1 / Fold change vs veh, NRIP1 / RFU, PTTG1IP / Fold change vs veh, PTTG1IP / RFU, CAPN2 / Fold change vs veh, CAPN2 / RFU, MED14 / Fold change vs veh, MED14 / RFU, SNORA58 / Fold change vs veh, SNORA58 / RFU, C1orf63 / Fold change vs veh, C1orf63 / RFU, LRRFIP1 / Fold change vs veh, LRRFIP1 / RFU, NDUFAF7 / Fold change vs veh, NDUFAF7 / RFU, SLC12A2 / Fold change vs veh, SLC12A2 / RFU, IBTK / Fold change vs veh, IBTK / RFU, ESF1 / Fold change vs veh, ESF1 / Fold change vs veh, TMEM50B / RFU, TAOK1 / Fold change vs veh, TAOK1 / RFU, ACBD3 / Fold change vs veh, ACBD3 / RFU, TMA16 / Fold change vs veh, TMA16 / RFU, RWDD3 / Fold change vs veh, RWDD3 / RFU, BCAT1 / Fold change vs veh, BCAT1 / RFU, EDEM3 / Fold change vs veh, EDEM3 / RFU, TMEM33 / Fold change vs veh, TMEM33 / RFU, WDR75 / Fold change vs veh, WDR75 / RFU, AHCTF1 / Fold change vs veh, AHCTF1 / RFU, TFRC / Fold change vs veh, TFRC / RFU, ZDHHC17 / Fold change vs veh, ZDHHC17 / RFU, NOM1 / Fold change vs veh, NOM1 / RFU, ARL8B / Fold change vs veh, ARL8B / RFU, ZBTB11 / Fold change vs veh, ZBTB11 / RFU, TAMM41 / Fold change vs veh, TAMM41 / RFU, KIAA1704 /// LOC100996395 / Fold change vs veh, KIAA1704 /// LOC100996395 / RFU, ING1 / Fold change vs veh, ING1 / RFU, TRMT61B / Fold change vs veh, TRMT61B / RFU, FUBP3 / Fold change vs veh, FUBP3 / RFU, TP53 / Fold change vs veh, TP53 / RFU, TNKS2 / Fold change vs veh, TNKS2 / RFU, ZFP14 / Fold change vs veh, ZFP14 / RFU, ACTR2 / Fold change vs veh, ACTR2 / RFU, PPP3R1 / Fold change vs veh, PPP3R1 / RFU, PIK3R1 / Fold change vs veh, PIK3R1 / RFU, HNRNPA1 / Fold change vs veh, HNRNPA1 / RFU, RNF170 / Fold change vs veh, RNF170 / RFU, ZNF28 / Fold change vs veh, ZNF28 / RFU, RNGTT / Fold change vs veh, RNGTT / RFU, OGT / Fold change vs veh, OGT / RFU, BRD1 / Fold change vs veh, BRD1 / RFU, MARS / Fold change vs veh, MARS / RFU, ZNF655 / Fold change vs veh, ZNF655 / RFU, FAHD1 / Fold change vs veh, FAHD1 / RFU, BDP1 / Fold change vs veh, BDP1 / RFU, LRRCC1 / Fold change vs veh, LRRCC1 / RFU, ARID1A / Fold change vs veh, ARID1A / RFU, ZNF146 / Fold change vs veh, ZNF146 / RFU, ZNF330 / Fold change vs veh, ZNF330 / RFU, GPN3 / Fold change vs veh, GPN3 / RFU, C9orf123 / Fold change vs veh, C9orf123 / RFU, N4BP2L2 / Fold change vs veh, N4BP2L2 / RFU, ARFIP1 / Fold change vs veh, ARFIP1 / RFU, FAM179B / Fold change vs veh, FAM179B / RFU, BCL10 / Fold change vs veh, BCL10 / RFU, UHRF1BP1L / Fold change vs veh, UHRF1BP1L / RFU, BET1 / Fold change vs veh, BET1 / RFU, CNOT2 / Fold change vs veh, CNOT2 / RFU, ZNF268 / Fold change vs veh, ZNF268 / Fold change vs veh, ZNF507 / RFU, DGCR2 / Fold change vs veh, DGCR2 / RFU, WDSUB1 / Fold change vs veh, WDSUB1 / Fold change vs veh, HSP90B1 /// MIR3652 / RFU, ADSS / Fold change vs veh, ADSS / RFU, GK / Fold change vs veh, GK / RFU, ZNF148 / Fold change vs veh, ZNF148 / RFU, TAF9 / Fold change vs veh, TAF9 / RFU, SLC1A5 / Fold change vs veh, SLC1A5 / RFU, SLMO2 / Fold change vs veh, SLMO2 / RFU, ABCC4 / Fold change vs veh, ABCC4 / RFU, LOC101060439 /// RAP1B / Fold change vs veh, LOC101060439 /// RAP1B / RFU, RFX7 / Fold change vs veh, RFX7 / RFU, GTPBP10 / Fold change vs veh, GTPBP10 / RFU, CNEP1R1 / Fold change vs veh, CNEP1R1 / RFU, BIVM-ERCC5 /// ERCC5 / Fold change vs veh, BIVM-ERCC5 /// ERCC5 / RFU, ILF3 / Fold change vs veh, ILF3 / RFU 11762660_at / Fold change /veh 11762660_at / RFU VCAN (11757783_s_at) / Fold change /veh VCAN (11757783_s_at) / RFU DDX43 (11728927_at) / Fold change /veh DDX43 (11728927_at) / RFU KRT8 (11758188_x_at) / Fold change /veh KRT8 (11758188_x_at) / RFU NKD1 (11759106_at) / Fold change /veh NKD1 (11759106_at) / RFU SRD5A1 (11742802_a_at) / Fold change /veh SRD5A1 (11742802_a_at) / RFU TPSAB1 /// TPSB2 (11721975_s_at) / Fold change /veh TPSAB1 /// TPSB2 (11721975_s_at) / RFU GSTM3 (11746129_a_at) / Fold change /veh GSTM3 (11746129_a_at) / RFU IL23R (11737362_x_at) / Fold change /veh IL23R (11737362_x_at) / RFU TMEM51 (11727254_a_at) / Fold change /veh TMEM51 (11727254_a_at) / RFU PIWIL2 (11732686_x_at) / Fold change /veh PIWIL2 (11732686_x_at) / RFU ORM1 (11744905_x_at) / Fold change /veh ORM1 (11744905_x_at) / RFU CCDC152 (11743942_at) / Fold change /veh CCDC152 (11743942_at) / RFU ECM1 (11717891_a_at) / Fold change /veh ECM1 (11717891_a_at) / RFU IL23R (11748794_a_at) / Fold change /veh IL23R (11748794_a_at) / RFU TNFAIP8L3 (11732012_x_at) / Fold change /veh TNFAIP8L3 (11732012_x_at) / RFU MBOAT4 (11741988_at) / Fold change /veh MBOAT4 (11741988_at) / RFU 11764193_at / Fold change /veh 11764193_at / RFU TMEM53 (11763286_at) / Fold change /veh TMEM53 (11763286_at) / RFU MAGEB2 (11727129_at) / Fold change /veh MAGEB2 (11727129_at) / RFU TMEM200A (11744735_a_at) / Fold change /veh TMEM200A (11744735_a_at) / RFU CCDC152 (11751479_a_at) / Fold change /veh CCDC152 (11751479_a_at) / RFU FAM211A (11726209_a_at) / Fold change /veh FAM211A (11726209_a_at) / RFU RGS16 (11746705_a_at) / Fold change /veh RGS16 (11746705_a_at) / RFU VCAN (11755009_s_at) / Fold change /veh VCAN (11755009_s_at) / RFU RHOB (11743442_s_at) / Fold change /veh RHOB (11743442_s_at) / RFU RGS16 (11720943_a_at) / Fold change /veh RGS16 (11720943_a_at) / RFU RGS16 (11720944_at) / Fold change /veh RGS16 (11720944_at) / RFU, VPS4B / Fold change vs veh, VPS4B / RFU, CREB1 / Fold change vs veh, CREB1 / RFU, DNAJC13 / Fold change vs veh, DNAJC13 / RFU, GNAQ / Fold change vs veh, GNAQ / RFU, CDK5R1 / Fold change vs veh, CDK5R1 / RFU, ZRANB3 / Fold change vs veh, ZRANB3 / RFU, CUL4A / Fold change vs veh, CUL4A / RFU, CCNY / Fold change vs veh, CCNY / RFU, UFL1 / Fold change vs veh, UFL1 / RFU, COG3 / Fold change vs veh, COG3 / RFU, DIAPH2 / Fold change vs veh, DIAPH2 / RFU, SKA2 / Fold change vs veh, SKA2 / RFU, AFF3 / Fold change vs veh, AFF3 / RFU, LMF1 / Fold change vs veh, LMF1 / RFU, IPO11 / Fold change vs veh, IPO11 / RFU, DFFB / Fold change vs veh, DFFB / RFU, FOXP1 / Fold change vs veh, FOXP1 / RFU, CARD8 / Fold change vs veh, CARD8 / RFU, STRN3 / Fold change vs veh, STRN3 / RFU, ADK / Fold change vs veh, ADK / RFU, RASSF2 / Fold change vs veh, RASSF2 / RFU, WIPF1 / Fold change vs veh, WIPF1 / RFU, LARP1B / Fold change vs veh, LARP1B / RFU, RASA1 / Fold change vs veh, RASA1 / RFU, RB1 / Fold change vs veh, RB1 / RFU, PPFIA1 / Fold change vs veh, PPFIA1 / RFU, MAT2A / Fold change vs veh, MAT2A / RFU, CCT5 / Fold change vs veh, CCT5 / RFU, WDR92 / Fold change vs veh, WDR92 / RFU, CUX1 / Fold change vs veh, CUX1 / RFU, TTC7A / Fold change vs veh, TTC7A / RFU, TMEM135 / Fold change vs veh, TMEM135 / RFU, DEPTOR / Fold change vs veh, DEPTOR / RFU, CPM / Fold change vs veh, CPM / RFU, DNAJB6 / Fold change vs veh, DNAJB6 / RFU, CACNA2D3 / Fold change vs veh, CACNA2D3 / RFU, DTX4 / Fold change vs veh, DTX4 / RFU, TFCP2 / Fold change vs veh, TFCP2 / RFU, GMCL1 /// GMCL1P1 / Fold change vs veh, GMCL1 /// GMCL1P1 / RFU, AEBP2 / Fold change vs veh, AEBP2 / RFU, SNHG1 /// SNORD22 /// SNORD25 /// SNORD26 /// SNORD27 /// SNORD28 /// SNORD29 /// SNORD31 / Fold change vs veh, SNHG1 /// SNORD22 /// SNORD25 /// SNORD26 /// SNORD27 /// SNORD28 /// SNORD29 /// SNORD31 / Fold change (Aza/veh), C12orf56 (ProbeSet 11735607_a_at) / Fold change (ACY-1035/veh), C12orf56 (ProbeSet 11735607_a_at) / Fold change (Aza/veh), FGFR1OP (ProbeSet 11751329_s_at) / Fold change (ACY-1035/veh), FGFR1OP (ProbeSet 11751329_s_at) / Fold change (Aza/veh), VPS36 (ProbeSet 11739960_a_at) / Fold change (ACY-1035/veh), VPS36 (ProbeSet 11739960_a_at) / RFU SYPL1 (11715823_x_at) / Fold change /veh SYPL1 (11715823_x_at) / RFU IGFBP7 (11715501_s_at) / Fold change /veh IGFBP7 (11715501_s_at) / RFU REEP3 (11722064_at) / Fold change /veh REEP3 (11722064_at) / RFU IGLL1 (11728026_x_at) / Fold change /veh IGLL1 (11728026_x_at): dose or concentration left out as unconfirmed
Conditions: ProbeSet 11747888_a_at; LIST D

Nc1ncn([C@@H]2O[C@H](CO)[C@@H](O)[C@H]2O)c(=O)n1 [azacitidine]
Fold change vs veh, SH3YL1: 0.79
